Assay results: US8105836B2, “Chemical inhibitors of mismatch repair” (priority 2001, dated 2012)
Entries after “also recorded” stand apart in the source; their conditions may differ.

Assays:
[1] = system: mismatch repair (MMR) in H36 pCAR-OF cells; type: cell-based, murine; settings: for generation of β-galactosidase positive cells / MI and shifting of the polynucleotide tract in the pCAR-OF reporter: H36 pCAR-OF cells
Arabidopsis thaliana [2] = assay: Toxicity curve on Arabidopsis seeds on MS phytagar plates (root and shoot formation); type: in vivo; settings: for Dead: non-germinated seeds
Procedure: Briefly, AT seeds were sterilized with straight commercial bleach and 100 seeds were plated in 100 mm Murashige and Skoog (MS) phytagar (Life Technology) plates with increasing amounts of DMA (ranging from 100 μm to 50 mM). A similar amount of seeds were plated on MS phytagar only or in MS phytagar with increasing amounts of EMS (1001M to 50 mM), a mutagen commonly used to mutate AT seeds (McCallum, C. M. et al. (2000) Nat. Biotechnol. 18:455-457). Plates were grown in a temperature-controlled, fluorescent-lighted humidifier (Percival Growth Chamber) for 10 days. After 10 days, seeds were counted to determine toxicity levels for each compound. […] Plantlets that were identical to untreated seeds were scored healthy. Seeds with stunted root or shoot formation were scored intermediate (inter). Non-germinated seeds were scored dead.

Arabidopsis thaliana [3] = assay: New phenotypes in offspring of chemically exposed Arabidopsis plants; type: in vivo; settings: for offspring with small light green appearance (altered phenotype): offspring grown in standard soil conditions for 17 days, FIG. 6; for phenotypically distinct plants among offspring at day 10: offspring of plants grown from seeds on 2 mM DMA or 250 μM EMS for 10 days
Procedure: Next, 50 seeds were plated in two 150 mm dishes containing 2 mM DMA, 250 μM EMS or no drug. Seeds were grown for 10 days and then 10 plants from each plate were transferred to soil. All plants appeared to be similar in color and height. Plants were grown at room temperature with daily cycles of 18 hr light and 6 hr dark. After 45 days seeds are harvested from siliques and stored in a desiccator at 4° C. for 72 hours. Seeds are then sterilized and 100 seeds from each plant is sown directly into water-saturated soil and grown at room temperature with daily cycles of 18 hr light and 6 hr dark. […] These 7 altered plants were light green in color and appeared to grow slower. […] DMA-exposed plants produced offspring that were yellow in appearance in contrast to dark green, which is always found in wild-type plants. In addition, the yellow plants were also shorter. After 30 days, most wild-type plants produced flowers and siliques, while the 7 mutants just began flowering. After 45 days, control plants were harvested while mutant plants were harvested 10 to 15 days later.

[4] = system: Pichia yeast containing GUS-OF reporter; assay: Pichia yeast pGUS-OF MMR-sensitive reporter assay (X-glu plates); type: cell-based; settings: GUS-OF Pichia incubated with 300 μM chemical for 48 hours
Procedure: Briefly, the GUS-OF and GUS-IF gene, which contains a polyA repeat at the N-terminus of the protein was subcloned from the pCR-IF-GUS and pCR-OF-GUS plasmids into the EcoRI site of the pGP vector, which is a consitutively expressed yeast vector containing a zeocin resistance gene as selectable marker. pGP-GUS-IF and pGP-GUS-OF vectors were electroporated into competent Pichia cells using standard methods known by those skilled in the art. Cells were plated on YPD agar (10 g/L yeast extract; 20 g/L peptone; 2% glucose; 1.5% bactoagar) plates containing 100 μg/ml zeocin. Recombinant yeast are then analyzed for GUS expression/function by replica plating on YPD agar plates containing 100 μg/ml zeocin plus 1 mg/ml X-glu (5-bromo-4-chloro-3-indoyl-beta-D-glucuronide sodium salt) and grown at 30° C. for 16 hours. […] None of the yeast containing the GUS-OF turned blue in the presence of the X-glu substrate under normal growth conditions.
After incubation, yeast were plated on YPD-ZEO-X-GLU plates and grown at 30° C. for 16 hours.

MMR defective cell lines = settings: mammalian cells; Chen et al. 2000; cited from earlier work
[5] = system: human HEK293 cells (BAT26 microsatellite marker); assay: BAT26 microsatellite instability of endogenous loci in 293 cells (PCR, cloning, sequencing); type: cell-based
Procedure: (§1) Briefly, 10^5 cells were grown in control medium or 250 μM DMA, a concentration that is found to be non-toxic, for 14 to 17 days. Cells are then harvested and genomic DNA isolated using the salting out method (Nicolaides, N. C. et al. (1991) Mol. Cell. Biol. 11:6166-6176.).
Various amounts of test DNAs from HCT116 (a human colon epithelial cell line) and 293 were first used to determine the sensitivity of our microsatellite test. The BAT26 alleles are known to be heterogeneous between these two cell lines and the products migrate at different molecular weights (Nicolaides personal observation). DNAs were diluted by limiting dilution to determine the level of sensitivity of the assay. DNAs were PCR amplified using the BAT26F: 5′-[…]-3′ (SEQ ID NO:43) and the BAT26R: 5′-[…]-3′ (SEQ ID NO:44) primers in buffers as described (Nicolaides, N. C. et al. (1995) Genomics 30:195-206). Briefly 1 pg to 100 ngs of DNA were amplified using the following conditions: 94° C. for 30 sec, 58° C. for 30 sec, 72° C. for 30 sec for 30 cycles. […]
To measure for microsatellite stability in 293 cells grown with or without DMA, 0.1 ngs of DNA from DMA-treated or control 293 cells were amplified using the reaction conditions above. […] Fifty bacterial colonies were analyzed for BAT26 structure by directly adding an aliquot of live bacteria to the PCR mix. […]

human HEK293 cells = assay: Toxicity of DMA to 293 cells in culture; type: cell-based; settings: 14 to 17 days
Procedure: as §1

[6] = at high concentrations; Myers et al. 1988; cited from earlier work
[7] = system: MMR activity (ATPase-dependent); settings: in vitro assays; Galio 1999, Allen 1997, Bjornson 2000; cited from earlier work
[8] = Arabidopsis thaliana, in vivo, 10 days, 2.5 mM
[9] = Arabidopsis thaliana, in vivo, 10 days, 5 mM
[10] = Arabidopsis thaliana, in vivo, 10 days, 10 mM
[11] = Arabidopsis thaliana, in vivo, 10 days, 12.5 mM
[12] = Arabidopsis thaliana, in vivo, 10 days, 25 mM
[13] = Arabidopsis thaliana, in vivo, 10 days, 50 mM

For `CCOS(C)(=O)=O` [EMS, ethyl methanesulfonate], the “generation of β-galactosidase positive cells / MI and shifting of the polynucleotide tract in the pCAR-OF reporter” value [1] was “did not result in MI and/or the shifting of the polynulceotide tract in the pCAR-OF reporter”, the “concentration at which toxicity occurs” value (Arabidopsis thaliana [2]; Arabidopsis thaliana, in vivo, 10 days) was 250 µM and the Inter (Arabidopsis thaliana [2]; Arabidopsis thaliana, in vivo, 10 days, 0.1 mM) was 0 per 100 cells. It also gave a Healthy (Arabidopsis thaliana [2]; [8]) of 0 per 100 cells, an Inter (Arabidopsis thaliana [2]; [8]) of 0 per 100 cells and a Healthy (Arabidopsis thaliana [2]; [9]) of 0 per 100 cells. The Inter (Arabidopsis thaliana [2]; [9]) was 0 per 100 cells, the Healthy (Arabidopsis thaliana [2]; [10]) was 0 per 100 cells and the Inter (Arabidopsis thaliana [2]; [10]) was 0 per 100 cells. It also gave a Healthy (Arabidopsis thaliana [2]; [11]) of 0 per 100 cells, an Inter (Arabidopsis thaliana [2]; [11]) of 0 per 100 cells and a Healthy (Arabidopsis thaliana [2]; [12]) of 0 per 100 cells. For the same compound, the Inter (Arabidopsis thaliana [2]; [12]) was 0 per 100 cells, the Healthy (Arabidopsis thaliana [2]; [13]) was 0 per 100 cells and the Inter (Arabidopsis thaliana [2]; [13]) was 0 per 100 cells. For the same compound, the “offspring with small light green appearance (altered phenotype)” value (Arabidopsis thaliana [3]) was “No plants with altered phenotypes were observed”, the “phenotypically distinct plants among offspring at day 10” value (Arabidopsis thaliana [3]) was “no phenotypic difference was observed” and the “blue subclones (functional GUS) on YPD-ZEO-X-GLU plates” value [4] was “none are seen”.

For `COc1ccc2nc3cc(Cl)ccc3c(NCCCNCCCl)c2c1` [ICR191], the “mutation induction in MMR defective cell lines” value (MMR defective cell lines) is given as “produce enhanced mutation rates in already MMR defective cell lines”.

For `Cc1c2ccccc2c(C)c2ccccc12` [DMA, 9,10-dimethylanthracene], the “generation of β-galactosidase positive cells / MI and shifting of the polynucleotide tract in the pCAR-OF reporter” value [1] was “produces b-gal positive H36 pCAR-OF cells”, the “cells positive for b-gal” value ([1]; H36 pCAR-OF cells grown in the presence of DMA, FIG. 3) was “Approximately 3%” and the “BAT26 polyA repeat alleles by sequence analysis of clones” value ([5]; 293 cells treated with DMA, control clone homozygous for 26 nt polyA repeat) was “multiple alleles ranging from the wild-type with 26 polyA repeat to shorter alleles (24 polyA repeat) and larger alleles (28 polyA repeat)”. For the same compound, the “altered BAT26 alleles (microsatellite instability)” value ([5]; 293 cells, 250 μM DMA, 14-17 days, PCR and gel electrophoresis) was “showed the presence of an altered allele; also recorded: presence of a new allele in cells treated with DMA”, the “concentration at which toxicity occurs” value (Arabidopsis thaliana [2]; Arabidopsis seeds, continuous culture, from Table 2) was 10000 µM and the Dead (Arabidopsis thaliana [2]; concentration 0.1, 10 days) was 0 per 100 seeds. For the same compound, the Inter (Arabidopsis thaliana [2]; concentration 0.1, 10 days, stunted root or shoot formation scored intermediate) was 0 per 100 seeds, the Dead (Arabidopsis thaliana [2]; concentration 0.5, 10 days) was 0 per 100 seeds and the Inter (Arabidopsis thaliana [2]; concentration 0.5, 10 days, stunted root or shoot formation) was 0 per 100 seeds. The Dead (Arabidopsis thaliana [2]; concentration 1.0, 10 days) was 0 per 100 seeds, the Inter (Arabidopsis thaliana [2]; concentration 1.0, 10 days, stunted root or shoot formation) was 0 per 100 seeds and the Dead (Arabidopsis thaliana [2]; concentration 2.5, 10 days) was 0 per 100 seeds. The Dead (Arabidopsis thaliana [2]; concentration 5.0, 10 days) was 0 per 100 seeds, the Dead (Arabidopsis thaliana [2]; concentration 10, 10 days) was 0 per 100 seeds and the Healthy (Arabidopsis thaliana [2]; concentration 12.5, 10 days on MS phytagar) was 0 per 100 seeds. The Dead (Arabidopsis thaliana [2]; concentration 12.5, 10 days) was 0 per 100 seeds, the Healthy (Arabidopsis thaliana [2]; concentration 25, 10 days on MS phytagar) was 0 per 100 seeds and the Dead (Arabidopsis thaliana [2]; concentration 25, 10 days) was 0 per 100 seeds. The Healthy (Arabidopsis thaliana [2]; concentration 50, 10 days on MS phytagar) was 0 per 100 seeds, the Inter (Arabidopsis thaliana [2]; concentration 50, 10 days, stunted root or shoot formation) was 0 per 100 seeds and the “offspring with small light green appearance (altered phenotype)” value (Arabidopsis thaliana [3]) was “Six”. The “phenotypically distinct plants among offspring at day 10” value (Arabidopsis thaliana [3]) was 7 out of 118, the “blue subclones (functional GUS) on YPD-ZEO-X-GLU plates” value [4] was “a subset of yeast expressing GUS-OF contain blue subclones” and the “concentration found to be non-toxic” value (human HEK293 cells) was 250 µM. For the same compound, the mutagenic activity [6] was “acts as a potent weak mutagen”.

In the case of `Nc1ncnc2c1ncn2[C@@H]1O[C@H](COP(=O)(O)OP(=O)(O)OP(O)(O)=S)[C@@H](O)[C@H]1O` [ATP[gamma]S], the “effect on MMR activity in vitro” value [7] is listed as “block the MMR activity”.

In the case of `Nc1ncnc2c1ncn2[C@@H]1O[C@H](COP(=O)(O)OP(=O)(O)NP(=O)(O)O)[C@@H](O)[C@H]1O` [AMP-PNP], the “effect on MMR activity in vitro” value [7] is listed as “block the MMR activity”.
